Reference: paper PMC6032018, “Post-translational regulation of a Porphyromonas gingivalis regulator” (Journal of Oral Microbiology, 2018)

Experiments:
RprY [1] = molecular target: T1, RprY (Porphyromonas gingivalis, UniProt B2RK10); assay: EMSA with nqrA promoter DNA and in vitro ChIP after treatment with AcP; format: biochemical; settings: phosphoryl donor; covalent; protein as purified already partly phosphorylated; acetylation by AcP not ruled out
T1 construct: N-terminal His6-RprY (pETRprY), recombinant from E. coli BL21(DE3), 28 kDa ORF; already phosphorylated as purified
T1 sequence (B2RK10 entry or part of it): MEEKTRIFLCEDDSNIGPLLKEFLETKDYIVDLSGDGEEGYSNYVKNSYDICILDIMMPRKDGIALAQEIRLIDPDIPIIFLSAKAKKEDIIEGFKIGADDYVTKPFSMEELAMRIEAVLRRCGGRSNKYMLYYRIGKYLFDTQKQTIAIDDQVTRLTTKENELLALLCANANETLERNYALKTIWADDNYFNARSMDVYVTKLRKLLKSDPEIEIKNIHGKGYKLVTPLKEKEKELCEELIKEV

RprY [2] = molecular target: T1, RprY; assay: autoacetylation, anti-acetyl-lysine Western blot; format: biochemical; settings: 10 mM Tris-HCl pH 8.0, 37 °C, no added enzyme; covalent (lysine acetylation); acetyl donor

Row | Compound | EMSA with nqrA promoter DNA and in vitro ChIP after treatment with AcP (RprY [1]) | autoacetylation, anti-acetyl-lysine Western blot (RprY [2])
1 | CC(=O)OP(=O)(O)O [acetyl phosphate] | increasing concentrations of AcP resulted in increased incorporation of the labelled promoter into RprY-DNA complexes | –
2 | CC(=O)SCCNC(=O)CCNC(=O)[C@H](O)C(C)(C)COP(=O)(O)OP(=O)(O)OC[C@H]1O[C@@H](n2cnc3c(N)ncnc32)[C@H](O)[C@@H]1OP(=O)(O)O [acetyl-CoA] | – | RprY was dependent on both the concentration of Ac-CoA and the length of incubation
